Among the data in patent publication US7868026B2, “Therapeutic compounds” (Pfizer Inc., priority 2005, dated 2011) are Ki and IC50 values, retold here.

Structures are written as SMILES. Read-outs that look alike come from different tables or passages of the source.

Holding throughout (format): biochemical
The target of experiment [1] is T1, CYP3A4 (Homo sapiens, UniProt P08684). Briefly: Determination of compound Kiapp against recombinant CYP3A4 enzyme (BFC fluorescent substrate). In a few lines: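 Recombinant CYP3A4 (5.5 or 8 nM, with or without b5 depending on source) pre-incubated with inhibitor ≥30 min at room temperature in 100 mM sodium phosphate pH 7.0, 5 mM TCEP, 2% DMF. Reaction started with 200 uM NADPH and 5 uM BFC; initial fluorescence rates over 5 min fitted to Morrison tight-binding (non-partial) or Szedlacsek (partial) equations for Kiapp.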

Experiment [2] addresses T1, CYP3A4. Briefly: Determination of IC50 against CYP3A4 by measurement of inhibition of midazolam metabolism (human liver microsomes, 1-hydroxymidazolam by LC-MS/MS). Details: 0.1 mg/mL human liver microsomes. As to conditions: 2 μM midazolam, 0.1 mg/mL human liver microsomes. In a few lines:
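Human liver microsomes (0.1 mg/mL) incubated 8 min with 2 μM midazolam and 1 mM NADPH in 100 mM potassium phosphate, pH 7.4. 1-Hydroxymidazolam quantified by LC-MS/MS (MRM) as peak area ratio to internal standard against a metabolite standard curve.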
For orientation: Microsomes from liver hold many membrane-bound enzymes, among them those of drug oxidation.

The target of experiment [3] is T1, CYP3A4. Kind of experiment: Determination of IC50 against CYP3A4 by measurement of inhibition of testosterone metabolism (human liver microsomes, 6-β-OH-testosterone by LC-MS/MS). Details: 0.1 mg/mL human liver microsomes. As to conditions: read-out: IC50 (Testo.). On the procedure:
2. Determination of IC50 Against CYP3A4 by Measurement of Inhibition of Testosterone Metabolism
This assay was performed using a standard 96 well plate design. […] The incubation substrate mix contains 25 μM testosterone, 0.1 mg/mL human liver microsomes, 1 mM NADPH, and potassium phosphate buffer (100 mM, pH 7.4). Quantitation of metabolite peak area ratio against an internal standard is determined by LC-MS/MS analysis. The production of 6-β-OH-testosterone from testosterone metabolism is determined after incubation for eight minutes by comparison to a standard curve generated for the metabolite
Samples were analyzed in the MRM mode using a Sciex API 3000 mass spectrometer (Applied Biosystems, Foster City, Calif.) with a Paradigm MS4 binary pump (Michrom BioResources Inc., Auburn, Calif.) and a LEAP CTC PAL autosampler (LEAP Technologies, Carrboro, N.C.). A Phenomenex Synergi, 4μ, Polar-RP, 10×2.0 mm column (Phenomenex, Torrance, Calif.) was used for separation with a mobile phase composition of: 0.1% formic acid in water (A) and: 0.1% formic acid in methanol (B). The following gradient was used: […]
The sample injection volume was 10 μL and flow was split post-column with 0.4 mL/min going to the mass spectrometer. Analysis was performed using the following API 3000 mass spectrometer settings: […]

[4] abbreviates: Baculo. enzyme preparation, read-out: Kiapp (BFC, Baculo.).
[5] abbreviates: Super. enzyme preparation, read-out: Kiapp (BFC, Super.).

T1 sequence (P08684 whole entry): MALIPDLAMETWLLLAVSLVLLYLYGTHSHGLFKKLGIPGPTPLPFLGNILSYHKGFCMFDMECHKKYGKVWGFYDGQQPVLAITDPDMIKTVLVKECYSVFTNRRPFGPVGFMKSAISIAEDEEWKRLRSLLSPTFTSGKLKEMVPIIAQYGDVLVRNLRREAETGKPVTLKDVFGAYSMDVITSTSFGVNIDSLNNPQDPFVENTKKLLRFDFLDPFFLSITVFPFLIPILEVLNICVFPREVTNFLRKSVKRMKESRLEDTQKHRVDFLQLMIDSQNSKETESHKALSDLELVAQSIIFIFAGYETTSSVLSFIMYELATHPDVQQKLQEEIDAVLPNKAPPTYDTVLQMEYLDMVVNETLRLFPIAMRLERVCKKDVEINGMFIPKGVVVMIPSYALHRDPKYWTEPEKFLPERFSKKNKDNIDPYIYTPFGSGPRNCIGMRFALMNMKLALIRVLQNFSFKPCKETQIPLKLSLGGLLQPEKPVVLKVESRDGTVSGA

The term IC50 denotes the concentration that inhibits the measured activity by half. For `CC(C)(CO)NC(=O)c1ccccc1S(=O)(=O)Nc1cccnc1` [Example 39, N-(2-hydroxy-1,1-dimethylethyl)-2-[(pyridin-3-ylamino)sulfonyl]benzamide], the Ki at CYP3A4 [1] (setting [4]) was greater than 1000 nM. Moreover, the IC50 at CYP3A4 [2] and at CYP3A4 [3] was greater than 500 nM each time.

As to `CCN(CCn1cccn1)C(=O)c1ccccc1S(=O)(=O)Nc1cccnc1` [Example 40, N-ethyl-N-[2-(1H-pyrazol-1-yl)ethyl]-2-[(pyridin-3-ylamino)sulfonyl]benzamide], the Ki on CYP3A4 [1] (setting [4]) was greater than 1000 nM. Also, the IC50 at CYP3A4 [2] amounted to 179 nM; on CYP3A4 [3], 340 nM.

In the case of `CC1CCN(C(=O)c2ccccc2S(=O)(=O)Nc2cccnc2)CC1` [Example 41, 2-[(4-methylpiperidin-1-yl)carbonyl]-N-pyridin-3-ylbenzenesulfonamide], the results for the Ki at CYP3A4 [1] (setting [4]) and at CYP3A4 [1] (setting [5]) were 486 nM and 30.3 nM, respectively. Also, the results for the IC50 at CYP3A4 [2] and at CYP3A4 [3] were 62.8 nM and 83.4 nM, respectively.

Regarding `CC(C)CCNC(=O)c1ccccc1S(=O)(=O)Nc1cccnc1` [Example 42, N-(3-methylbutyl)-2-[(pyridin-3-ylamino)sulfonyl]benzamide], the Ki turned out to be 378 nM on CYP3A4 [1] (setting [4]) and 22.5 nM on CYP3A4 [1] (setting [5]). Moreover, the IC50 at CYP3A4 [2] turned out to be 35.9 nM; on CYP3A4 [3], 51.5 nM.

In the case of `O=C(NCc1cccc(F)c1)c1ccccc1S(=O)(=O)Nc1cccnc1` [Example 43, N-(3-fluorobenzyl)-2-[(pyridin-3-ylamino)sulfonyl]benzamide], the Ki on CYP3A4 [1] (setting [4]) was found to be 269 nM; on CYP3A4 [1] (setting [5]), 16.5 nM. Also, the IC50 on CYP3A4 [2] was determined as 13.4 nM; at CYP3A4 [3], 21.7 nM.

Take `CC(C)(C)CNC(=O)c1ccccc1S(=O)(=O)Nc1cccnc1` [Example 44, N-(2,2-dimethylpropyl)-2-[(pyridin-3-ylamino)sulfonyl]benzamide]: the Ki at CYP3A4 [1] (setting [4]) was 617 nM. Further, the values for the IC50 on CYP3A4 [2] and on CYP3A4 [3] were 72 nM and 167 nM, respectively.

On to `COc1cccc(OC)c1CNC(=O)c1ccccc1S(=O)(=O)Nc1cccnc1` [Example 45, N-(2,6-dimethoxybenzyl)-2-[(pyridin-3-ylamino)sulfonyl]benzamide], for which the Ki on CYP3A4 [1] (setting [4]) was 382 nM. Besides, the IC50 at CYP3A4 [2] turned out to be 20 nM; at CYP3A4 [3], 42 nM.

Regarding `COc1cccc(CNC(=O)c2ccccc2S(=O)(=O)Nc2cccnc2)c1` [Example 46, N-(3-methoxybenzyl)-2-[(pyridin-3-ylamino)sulfonyl]benzamide], on CYP3A4 [1] (setting [4]), the Ki worked out at 325 nM. Moreover, the IC50 on CYP3A4 [2] and at CYP3A4 [3] was 23 nM each time.

Regarding `CCCCCN(C)C(=O)c1ccccc1S(=O)(=O)Nc1cccnc1` [Example 47, N-methyl-N-pentyl-2-[(pyridin-3-ylamino)sulfonyl]benzamide], at CYP3A4 [1] (setting [4]), the Ki is 332 nM. The IC50 was 26 nM on CYP3A4 [2] and 30 nM on CYP3A4 [3].

In the case of `O=C(NCC1CC1)c1ccccc1S(=O)(=O)Nc1cccnc1` [Example 48, N-(cyclopropylmethyl)-2-[(pyridin-3-ylamino)sulfonyl]benzamide], on CYP3A4 [1] (setting [4]), the Ki was greater than 1000 nM. In addition, the IC50 came out at 327 nM on CYP3A4 [2] and 335 nM on CYP3A4 [3].

On to `CC(C)NC(=O)c1ccccc1S(=O)(=O)Nc1cccnc1` [Example 49, N-isopropyl-2-[(pyridin-3-ylamino)sulfonyl]benzamide], for which the Ki on CYP3A4 [1] (setting [4]) is greater than 1000 nM. Further, the IC50 at CYP3A4 [2] was 328 nM; at CYP3A4 [3], greater than 500 nM.

As to `CCCNC(=O)c1ccccc1S(=O)(=O)Nc1cccnc1` [Example 50, N-propyl-2-[(pyridin-3-ylamino)sulfonyl]benzamide], the Ki at CYP3A4 [1] (setting [4]) is greater than 1000 nM. In addition, the results for the IC50 on CYP3A4 [2] and on CYP3A4 [3] were 254 nM and 371 nM, respectively.

With `COc1cc(CNC(=O)c2ccccc2S(=O)(=O)Nc2cccnc2)cc(OC)c1` [Example 51, N-(3,5-dimethoxybenzyl)-2-[(pyridin-3-ylamino)sulfonyl]benzamide], the Ki at CYP3A4 [1] (setting [4]) amounted to 680 nM. The concentration for half-maximal inhibition (IC50) on CYP3A4 [2] turned out to be 34 nM; on CYP3A4 [3] it was 57 nM.

On to `O=C(NCc1cccc2[nH]ccc12)c1ccccc1S(=O)(=O)Nc1cccnc1` [Example 52, N-(1H-indol-4-ylmethyl)-2-[(pyridin-3-ylamino)sulfonyl]benzamide], for which the Ki at CYP3A4 [1] (setting [4]) stood at 560 nM. The IC50 turned out to be 27 nM on CYP3A4 [2] and 73 nM on CYP3A4 [3].

With `COc1ccc(CNC(=O)c2ccccc2S(=O)(=O)Nc2cccnc2)c(OC)c1` [Example 53, N-(2,4-dimethoxybenzyl)-2-[(pyridin-3-ylamino)sulfonyl]benzamide], at CYP3A4 [1] (setting [4]), the Ki was 613 nM. For the same compound, the results for the concentration for half-maximal inhibition (IC50) at CYP3A4 [2] and at CYP3A4 [3] were 24 nM and 49 nM, respectively.

For the compound `CCCN(CC1CC1)C(=O)c1ccccc1S(=O)(=O)Nc1cccnc1` [Example 54, N-(cyclopropylmethyl)-N-propyl-2-[(pyridin-3-ylamino)sulfonyl]benzamide], the Ki at CYP3A4 [1] (setting [4]) is 239 nM. Further, the IC50 is 15 nM on CYP3A4 [2] and 26 nM on CYP3A4 [3].

Take `CN(Cc1ccccc1)C(=O)c1ccccc1S(=O)(=O)Nc1cccnc1` [Example 55, N-benzyl-N-methyl-2-[(pyridin-3-ylamino)sulfonyl]benzamide]: the Ki at CYP3A4 [1] (setting [4]) was determined as 385 nM; at CYP3A4 [1] (setting [5]), 14.2 nM. In addition, the IC50 amounted to 40.6 nM on CYP3A4 [2] and 54.5 nM at CYP3A4 [3].

As for `O=C(NCCOc1ccccc1)c1ccccc1S(=O)(=O)Nc1cccnc1` [Example 56, N-(2-phenoxyethyl)-2-[(pyridin-3-ylamino)sulfonyl]benzamide], the Ki on CYP3A4 [1] (setting [4]) turned out to be 340 nM; at CYP3A4 [1] (setting [5]), 22.4 nM. Moreover, the results for the IC50 at CYP3A4 [2] and at CYP3A4 [3] were 48.9 nM and 62 nM, respectively.

Turning to `COc1ccc(CNC(=O)c2ccccc2S(=O)(=O)Nc2cccnc2)cc1` [Example 57, N-(4-methoxybenzyl)-2-[(pyridin-3-ylamino)sulfonyl]benzamide], the Ki was determined as 353 nM on CYP3A4 [1] (setting [4]) and 35 nM at CYP3A4 [1] (setting [5]). The IC50 at CYP3A4 [2] is 69.6 nM; on CYP3A4 [3], 93.3 nM.

Take `O=C(NC1Cc2ccccc2C1)c1ccccc1S(=O)(=O)Nc1cccnc1` [Example 58, N-(2,3-dihydro-1H-inden-2-yl)-2-[(pyridin-3-ylamino)sulfonyl]benzamide]: the results for the Ki at CYP3A4 [1] (setting [4]) and on CYP3A4 [1] (setting [5]) were 150 nM and 9.1 nM, respectively. Besides, the results for the half-maximal inhibitory concentration (IC50) on CYP3A4 [2] and at CYP3A4 [3] were 26.5 nM and 25.3 nM, respectively.

As to `CCCCOCCCNC(=O)c1ccccc1S(=O)(=O)Nc1cccnc1` [Example 59, N-(3-butoxypropyl)-2-[(pyridin-3-ylamino)sulfonyl]benzamide], the Ki amounted to 838 nM on CYP3A4 [1] (setting [4]) and 57.4 nM at CYP3A4 [1] (setting [5]). Moreover, the IC50 was determined as 109 nM at CYP3A4 [2] and 117 nM on CYP3A4 [3].

For the compound `COc1cccc(CCNC(=O)c2ccccc2S(=O)(=O)Nc2cccnc2)c1` [Example 60, N-[2-(3-methoxyphenyl)ethyl]-2-[(pyridin-3-ylamino)sulfonyl]benzamide], the Ki on CYP3A4 [1] (setting [4]) was determined as 151 nM. For the same compound, the IC50 on CYP3A4 [2] came out at 17 nM; at CYP3A4 [3], 24 nM.

Turning to `CCCCCNC(=O)c1ccccc1S(=O)(=O)Nc1cccnc1` [Example 61, N-pentyl-2-[(pyridin-3-ylamino)sulfonyl]benzamide], the Ki is 131 nM on CYP3A4 [1] (setting [4]) and 7.7 nM on CYP3A4 [1] (setting [5]). For the same compound, the IC50 on CYP3A4 [2] was determined as 26.8 nM; on CYP3A4 [3], 30.2 nM.
